System: IL-1β production in PMA-differentiated THP-1 cells
Test: IL-1β production in PMA-differentiated THP-1 cells stimulated with gramicidin (hTHP-1 assay, 2% fetal bovine serum; Procedures 1-3)
Assay type: cell-based, human
Conditions: Homo sapiens, THP-1, hTHP-1 assay containing 2% fetal bovine serum; class symbols; read-out: hTHP-1 IC50 (Average IC50 of compounds in hTHP-1 assay)
Method in brief: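 Readout is HTRF of IL-1β in cell-free supernatant after 2 h gramicidin (5 μM) challenge. Cells: THP-1 differentiated with PMA 20 ng/ml for 16-18 h, plated 50,000/well in 2% FBS RPMI, exposed to compound 1 h beforehand at final 100–0.0017 μM, DMSO 0.37%.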

IC50 | SMILES
40 to 200 nM | CC(C)c1ccc(F)c(C(C)C)c1NC(=O)N=S(N)(=O)c1cnc(C(C)(C)O)s1 (stereo not shown) [Example 62, N′-((3-fluoro-2,6-diisopropylphenyl)carbamoyl)-2-(2-hydroxypropan-2-yl)thiazole-5-sulfonimidamide]
200 to 1000 nM | CC(C)c1cc(C#N)cc(C(C)C)c1NC(=O)N=S(N)(=O)c1cc(C#N)cc(C(C)(C)O)c1 (stereo not shown) [Example 67, 3-cyano-N′-((4-cyano-2,6-diisopropylphenyl)carbamoyl)-5-(2-hydroxypropan-2-yl)benzenesulfonimidamide]
1000 to 5000 nM | CC(C)c1cc(C#N)c(F)c(C(C)C)c1NC(=O)NS(=N)(=O)c1sc(C(C)(C)O)nc1CO (stereo not shown) [Example 71, N-((4-cyano-3-fluoro-2,6-diisopropylphenyl)carbamoyl)-4-(hydroxymethyl)-2-(2-hydroxypropan-2-yl)thiazole-5-sulfonimidamide]
8 to 40 nM | CC(C)(O)c1ncc(S(N)(=O)=NC(=O)Nc2c3c(cc4c2CC4)CCC3)s1 (stereo not shown) [Example 223, 2-(2-Hydroxypropan-2-yl)-N′-((2,4,5,6-tetrahydro-1H-cyclobuta[f]inden-3-yl)carbamoyl)thiazole-5-sulfonimidamide]

Continued, compound first:

SMILES | IC50
CNS(=O)(=NC(=O)Nc1c2c(cc3c1CCC3)CCC2)c1cnc(C(C)(C)O)s1 (stereo not shown) [Example 247, N′-((1,2,3,5,6,7-hexahydro-s-indacen-4-yl)carbamoyl)-2-(2-hydroxypropan-2-yl)-N-methylthiazole-5-sulfonimidamide] | 5000 to 30000 nM
CN(C(=O)N=S(N)(=O)c1cnc(C(C)(C)O)s1)c1c2c(cc3c1CCC3)CCC2 (stereo not shown) [Example 248, N′-((1,2,3,5,6,7-hexahydro-s-indacen-4-yl)(methyl)carbamoyl)-2-(2-hydroxypropan-2-yl)thiazole-5-sulfonimidamide] | 5000 to 30000 nM
CC(C)(O)c1cnc(S(N)(=O)=NC(=O)Nc2c3c(cc4c2OCC4)CCC3)s1 (stereo not shown) [Example 258, 5-(2-Hydroxypropan-2-yl)-N′-((3,5,6,7-tetrahydro-2H-indeno[5,6-b]furan-8-yl)carbamoyl)thiazole-2-sulfonimidamide] | 40 to 200 nM
CC(C)(O)c1csc(S(N)(=O)=NC(=O)Nc2c3c(cc4c2OCC4)CCC3)n1 (stereo not shown) [Example 263, 4-(2-Hydroxypropan-2-yl)-N′-((3,5,6,7-tetrahydro-2H-indeno[5,6-b]furan-8-yl)carbamoyl)thiazole-2-sulfonimidamide] | 8 to 40 nM

Same assay, conditions: hTHP-1 assay containing 2% fetal bovine serum; class symbols; read-out: hTHP-1 IC50 (Average IC50 of compounds in hTHP-1 assay)

IC50 | SMILES
200 to 1000 nM | CC(C)c1cc(C#N)c(F)c(C(C)C)c1NC(=O)N=S(N)(=O)c1cnc(C(C)(O)CO)s1 (stereo not shown) [Example 72, N′-((4-cyano-3-fluoro-2,6-diisopropylphenyl)carbamoyl)-2-(1,2-dihydroxypropan-2-yl)thiazole-5-sulfonimidamide]
40 to 200 nM | CC(c1ccc(S(N)(=O)=NC(=O)Nc2c3c(cc4c2CCC4)CCC3)cc1)N(C)C (stereo not shown) [Example 266, 4-(1-(Dimethylamino)ethyl)-N′-(1,2,3,5,6,7-hexahydro-s-indacen-4-ylcarbamoyl)benzenesulfonimidamide]

Second part, the compound before the results:

SMILES | IC50
Cc1oc(S(N)(=O)=NC(=O)Nc2c3c(cc4c2C(C)CC4)CCC3)cc1C(C)(C)O [Example 127, Two isomers of (R,S)-and (R,R)-or (S,S)-and (S,R) 4-(2-hydroxypropan-2-yl)-5-methyl-N′-((3-methyl-1,2,3,5,6,7-hexahydro-s-indacen-4-yl)carbamoyl)furan-2-sulfonimidamide] | 40 to 200 nM
